Patent US9856263B2, “Heteroaromatic compounds and their use as dopamine D1 ligands” (PFIZER INC., priority 2014, dated 2018)
Read-outs that look alike come from different tables or passages of the source.

Biological target: Human D1 Receptor (Homo sapiens (Human), UniProt P21728)
Assay: Human D1 receptor binding assay ([3H]-SCH23390 competition binding)
Details: over-expressing LTK human cell lines, 0.5 nM [3H]-SCH23390, 30 min at 37° C., footnote a = single determination, b = geometric mean of ≧5 determinations
Method: D1 binding assays were performed using over-expressing LTK human cell lines. […] These ligand and tissue concentrations were used in time course studies to determine linearity and equilibrium conditions for binding. […] The pellet was resuspended in assay buffer [50 mM Tris (pH 7.4@ RT) containing 4 mM MgSO4 and 0.5 mM EDTA]. […] Non-specific binding was determined by radioligand binding in the presence of a saturating concentration of (+)-Butaclamol (10 μM), a D1 antagonist After a 30 minute incubation period at 37° C., assay samples were rapidly filtered through Unifilter-96 GF/B PEI-coated filter plates and rinsed with 50 mM Tris buffer (pH 7.4 at 4° C.). […] Ki values were calculated according to the Cheng-Prusoff equation: […]

[1] = read-out: Human D1 Receptor Binding, Ki (nM), Geometric mean of 2-4 determinations (unless otherwise indicated)

Chain of Human D1 Receptor (P21728 whole entry): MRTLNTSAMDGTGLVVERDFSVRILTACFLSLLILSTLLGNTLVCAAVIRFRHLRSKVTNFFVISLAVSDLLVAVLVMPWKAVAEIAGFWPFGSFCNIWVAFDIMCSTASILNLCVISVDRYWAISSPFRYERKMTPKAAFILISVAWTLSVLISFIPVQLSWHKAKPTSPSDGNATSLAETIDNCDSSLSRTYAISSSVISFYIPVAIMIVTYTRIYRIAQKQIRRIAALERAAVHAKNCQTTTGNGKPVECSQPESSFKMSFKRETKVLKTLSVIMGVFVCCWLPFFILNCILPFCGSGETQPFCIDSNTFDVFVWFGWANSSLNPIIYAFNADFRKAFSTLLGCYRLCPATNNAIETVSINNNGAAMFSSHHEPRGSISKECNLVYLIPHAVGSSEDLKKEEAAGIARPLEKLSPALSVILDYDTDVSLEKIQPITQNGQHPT

Cc1cc(Oc2nccn3cccc23)ccc1-c1c(C)cnnc1C (single isomer, unassigned) [Example 12, (−)-1-[4-(3,5-dimethylpyridazin-4-yl)-3-methylphenoxy]pyrrolo[1,2-a]pyrazine]
Ki [1]: 96.3 nM

Cc1cc(Oc2nccn3cccc23)ccc1-c1c(C)cnnc1C (single isomer, unassigned) [Example 13, (+)-1-[4-(3,5-dimethylpyridazin-4-yl)-3-methylphenoxy]pyrrolo[1,2-a]pyrazine]
Ki [1]: 13.1 nM

Cc1cc(Oc2nccn3cccc23)ccc1-c1c(C)ncnc1C [Example 4, 1-[4-(4,6-dimethylpyrimidin-5-yl)-3-methylphenoxy]pyrrolo[1,2-a]pyrazine]
Ki [1]: 22.1 nM

Cc1cc(Oc2ncnn3cccc23)ccc1-c1c(C)ncnc1C [Example 5, 4-[4-(4,6-dimethylpyrimidin-5-yl)-3-methylphenoxy]pyrrolo[2,1-f][1,2,4]triazine]
Ki [1]: 56.4 nM

Cc1cc(Oc2nccn3nccc23)ccc1-c1c(C)ncnc1C [Example 6, 4-[4-(4,6-dimethylpyrimidin-5-yl)-3-methylphenoxy]pyrazolo[1,5-a]pyrazine]
Ki [1]: 61.3 nM

Cc1ncnc(C)c1-c1ccc(Oc2nccn3nccc23)cc1 [Example 7, 4-[4-(4,6-dimethylpyrimidin-5-yl)phenoxy]pyrazolo[1,5-a]pyrazine]
Ki [1]: 514 nM

Cc1cc(Oc2nccn3nccc23)ccc1-c1c(C)ncc2nccn12 [Example 8, 6-methyl-5-[2-methyl-4-(pyrazolo[1,5-a]pyrazin-4-yloxy)phenyl](8-^2H)imidazo[1,2-a]pyrazine]
Ki [1]: 107 nM

Cc1cc(Oc2ncnn3cccc23)ccc1-c1c(C)cnnc1C [Example 9, 4-[4-(3,5-dimethylpyridazin-4-yl)-3-methylphenoxy]pyrrolo[2,1-f][1,2,4]triazine]
Ki [1]: 35.8 nM

Cc1ncnc(C)c1-c1ccc(Oc2nccn3cccc23)cc1C#N [Example 10, 2-(4,6-dimethylpyrimidin-5-yl)-5-(pyrrolo[1,2-a]pyrazin-1-yloxy)benzonitrile]
Ki: 63.9 nM

Cc1ncnc(C)c1-c1ccc(Oc2nccn3nccc23)cc1C#N [Example 11, 2-(4,6-dimethylpyrimidin-5-yl)-5-(pyrazolo[1,5-a]pyrazin-4-yloxy)benzonitrile]
Ki [1]: 1820 nM

Cc1n[nH]c(=O)c(C)c1-c1ccc(Oc2nccn3cccc23)cc1 [Example 14, 4,6-dimethyl-5-[4-(pyrrolo[1,2-a]pyrazin-1-yloxy)phenyl]pyridazin-3(2H)-one]
Ki [1]: 18.8 nM

Cc1c(-c2ccc(Oc3nccn4cccc34)cc2)n(C)c(=O)[nH]c1=O [Example 15, 1,5-dimethyl-6-[4-(pyrrolo[1,2-a]pyrazin-1-yloxy)phenyl]pyrimidine-2,4(1H,3H)-dione]
Ki [1]: 7.3 nM

Cc1ncnc(C)c1-c1ccc(Oc2ncnn3cccc23)cc1F [Example 16, 4-[4-(4,6-dimethylpyrimidin-5-yl)-3-fluorophenoxy]pyrrolo[2,1-f][1,2,4]triazine]
Ki [1]: 58.2 nM

Cc1ncnc(C)c1-c1ccc(Oc2nccn3nccc23)cc1F [Example 17, 4-[4-(4,6-dimethylpyrimidin-5-yl)-3-fluorophenoxy]pyrazolo[1,5-a]pyrazine]
Ki [1]: 183 nM

Cc1cc(Oc2ncnn3cccc23)ccc1-c1c(C)nc2ncccn12 [Example 18, 4-[3-methyl-4-(2-methylimidazo[1,2-a]pyrimidin-3-yl)phenoxy]pyrrolo[2,1-f][1,2,4]triazine]
Ki [1]: 1150 nM

COc1cc(Oc2ncnn3cccc23)ccc1-c1c(C)ncnc1C [Example 19, 4-[4-(4,6-dimethylpyrimidin-5-yl)-3-methoxyphenoxy]pyrrolo[2,1-f][1,2,4]triazine]
Ki [1]: 672 nM

Cc1ncnc(C)c1-c1ccc(Oc2nccn3cccc23)cc1F [Example 20, 1-[4-(4,6-dimethylpyrimidin-5-yl)-3-fluorophenoxy]pyrrolo[1,2-a]pyrazine]
Ki [1]: 59.3 nM

Cc1ncnc(C)c1-c1ccc(Oc2nccn3cccc23)cc1 [Example 21, 1-[4-(4,6-dimethylpyrimidin-5-yl)phenoxy]pyrrolo[1,2-a]pyrazine]
Ki [1]: 102 nM

Cc1cnnc(C)c1-c1ccc(Oc2ncnn3cccc23)cc1F [Example 22, 4-[4-(3,5-dimethylpyridazin-4-yl)-3-fluorophenoxy]pyrrolo[2,1-f][1,2,4]triazine]
Ki [1]: 105 nM

COc1cc(Oc2nccn3nccc23)ccc1-c1c(C)ncnc1C [Example 23, 4-[4-(4,6-dimethylpyrimidin-5-yl)-3-methoxyphenoxy]pyrazolo[1,5-a]pyrazine]
Ki [1]: 894 nM

COc1cc(Oc2ncnn3cccc23)ccc1-c1cccnc1C [Example 24, 4-[3-methoxy-4-(2-methylpyridin-3-yl)phenoxy]pyrrolo[2,1-f][1,2,4]triazine]
Ki [1]: 83.9 nM

COc1cc(Oc2nccn3cccc23)ccc1-c1cccnc1C [Example 25, 1-[3-methoxy-4-(2-methylpyridin-3-yl)phenoxy]pyrrolo[1,2-a]pyrazine]
Ki [1]: 56.4 nM

Cc1ncnc(C)c1-c1cc(F)c(Oc2nccn3cccc23)cc1F [Example 26, 1-[4-(4,6-dimethyipyrimidin-5-yl)-2,5-difluorophenoxy]pyrrolo[1,2-a]pyrazine]
Ki [1]: 86.1 nM

COc1cc(Oc2nccn3cccc23)ccc1-c1c(C)cnnc1C [Example 27, 1-[4-(3,5-dimethylpyridazin-4-yl)-3-methoxyphenoxy]pyrrolo[1,2-a]pyrazine]
Ki [1]: 28.1 nM

Cc1cc(Oc2nccn3cccc23)ccc1-c1c(C)nnc2nccn12 [Example 28, 3-methyl-4-[2-methyl-4-(pyrrolo[1,2-a]pyrazin-1-yloxy)phenyl]imidazo[2,1-c][1,2,4]triazine]
Ki [1]: 198 nM

Cc1ncnc(C)c1-c1cc(F)c(Oc2ncnn3cccc23)cc1F [Example 29, 4-[4-(4,6-dimethylpyrimidin-5-yl)-2,5-difluorophenoxy]pyrrolo[2,1-f][1,2,4]triazine]
Ki [1]: 85.7 nM

Cc1ncnc(C#N)c1-c1ccc(Oc2nccn3cccc23)cc1F [Example 30, 5-[2-fluoro-4-(pyrrolo[1,2-a]pyrazin-1-yloxy)phenyl]-6-methylpyrimidine-4-carbonitrile]
Ki [1]: 59 nM

Cc1ncnc(C)c1-c1ccc(Oc2nccn3cccc23)c(F)c1C [Example 31, 1-[4-(4,6-dimethylpyrimidin-5-yl)-2-fluoro-3-methylphenoxy]pyrrolo[1,2-a]pyrazine]
Ki [1]: 179 nM

Cc1ncnc(C)c1-c1ccc(Oc2ncnn3cccc23)c(F)c1C [Example 32, 4-[4-(4,6-dimethylpyrimidin-5-yl)-2-fluoro-3-methylphenoxy]pyrrolo[2,1-f][1,2,4]triazine]
Ki [1]: 116 nM

Cc1ncnc(C)c1-c1ccc(Oc2ncnn3cccc23)c(F)c1 [Example 33, 4-[4-(4,6-dimethylpyrimidin-5-yl)-2-fluorophenoxy]pyrrolo[2,1-f][1,2,4]triazine]
Ki [1]: 252 nM

Cc1ncnc(C)c1-c1ccc(Oc2nccn3cccc23)c(F)c1 [Example 34, 1-[4-(4,6-dimethylpryimidin-5-yl)-2-fluorophenoxy]pyrrolo[1,2-a]pyrazine]
Ki [1]: 49.4 nM

Cc1cc(Oc2nccn3cccc23)c(F)cc1-c1c(C)ncnc1C [Example 35, 1-[4-(4,6-dimethylpyrimidin-5-yl)-2-fluoro-5-methylphenoxy]pyrrolo[1,2-a]pyrazine]
Ki [1]: 31.5 nM

Cc1ncnc(C)c1-c1ccc(Oc2ncnn3cccc23)cc1Cl [Example 36, 4-[3-chloro-4-(4,6-dimethylpyrimidin-5-yl)phenoxy]pyrrolo[2,1-f][1,2,4]triazine]
Ki [1]: 48.7 nM

Cc1ncnc(C)c1-c1ccc(Oc2nccn3cccc23)cc1Cl [Example 37, 1-[3-chloro-4-(4,6-dimethylpyrimidin-5-yl)phenoxy]pyrrolo[1,2-a]pyrazine]
Ki [1]: 12.7 nM

Cc1ncnc(C)c1-c1ccc(Oc2ncnn3cccc23)cc1C#N [Example 38, 2-(4,6-dimethylpyrimidin-5-yl)-5-(pyrrolo[2,1-f][1,2,4]triazin-4-yloxy)benzonitrile]
Ki [1]: 141 nM

Cc1cc(Oc2ncnn3cccc23)ccc1-c1c(C)ncc(=O)n1C [Example 39, 1,5-dimethyl-6-[2-methyl-4-(pyrrolo[2,1-f][1,2,4]triazin-4-yloxy)phenyl]pyrazin-2(1H)-one]
Ki [1]: 31.2 nM

Cc1cc(Oc2ccnc3ccnn23)ccc1-c1c(C)ncnc1C [Example 40, 7-[4-(4,6-dimethylpyrimidin-5-yl)-3-methylphenoxy]pyrazolo[1,5-a]pyrimidine]
Ki [1]: > 6400 nM

COc1cc(Oc2nccn3cccc23)ccc1-c1c(C)ncnc1C [Example 41, 1-[4-(4,6-dimethylpyrimidin-5-yl)-3-methoxyphenoxy]pyrrolo[1,2-a]pyrazine]
Ki [1]: 34.7 nM
